Test [1] concerns the target recombinant RORγ Ligand Binding Domain (LBD) protein (Homo sapiens (Human), UniProt P51449). Description: Radio-Ligand RORγ Binding Assay (Assay 1). To be noted: competition with 25-hydroxy[26,27-3H]-cholesterol, SPA; read-out: RORγ Binding Ki Range* (nM) (Assay 1). As to the method: Radio-Ligand RORγ Binding Assay (Assay 1)
Compounds of the present invention were tested for ability to bind to RORγ in a cell-free competition assay with commercially available radio-ligand (RL), 25-hydroxy[26,27-^3H]-cholesterol (PerkinElmer, Cat. #NET674250UC), for a ligand binding site on a recombinant RORγ Ligand Binding Domain (LBD) protein expressed as a 6×His-Glutathione-S-Transferase (GST) fusion. […] The plate was shaken at 700 rpm for 20 min and incubated for 10 min at rt, after which 40 μL of poly-Lys YSi SPA beads (PerkinElmer, Cat. #RPNQ0010) were added to achieve 50 μg of the beads per well. The plate was incubated on an orbital shaker for 20 min and then for 10 min without agitation at rt. SPA signal for tritium beta radiation was registered on PerkinElmer Microbeta plate reader. […] The percent inhibition vs. concentration data were fit into a four-parameter model, and IC50 values were calculated from the fit as the concentrations corresponding to the inflection points on the dose-response curves. […]

The target of test [2] is full-length RORγt in Jurkat cells (Homo sapiens (Human), UniProt P51449). The test is described as follows: RORγt 5×RORE Assay in Jurkat Cells (Assay 2). In kind it is cell-based. The conditions noted are these: 5xRORE secreted Nanoluc luciferase reporter, 16-18 hrs, read-out: RORγt5X IC50 Range* (nM) (Assay 2). As to the method:
[formula] RORγt 5×RORE Assay in Jurkat Cells (Assay 2)
Compounds of the present invention were tested for RORγ inverse agonist activity in a cell-based, transcriptional activity assay. […] (Promega, Cat. #N1021) using KpnI and HindIII restriction sites. […] Tested compounds were added to the cells in the same media (final concentration of DMSO was 0.1% (v/v)), and the plates were incubated at 37° C./5% CO2 for 16-18 hrs. Luciferase activity in the conditioned supernatants was determined with NanoGlo® assay reagents (Promega, Cat.#N1130).
A general note: In a reporter assay the amount or activity of a reporter protein is the signal.

Sequence of recombinant RORγ Ligand Binding Domain (LBD) protein (P51449 269-508): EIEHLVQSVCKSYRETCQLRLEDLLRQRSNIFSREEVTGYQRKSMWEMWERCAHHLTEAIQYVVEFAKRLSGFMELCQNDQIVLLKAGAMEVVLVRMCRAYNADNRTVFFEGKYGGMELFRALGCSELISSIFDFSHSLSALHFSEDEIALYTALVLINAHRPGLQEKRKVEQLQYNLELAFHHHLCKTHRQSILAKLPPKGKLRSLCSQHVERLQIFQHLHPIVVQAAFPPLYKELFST
Sequence of full-length RORγt in Jurkat cells (P51449 other isoform, or with tags, fused parts or gaps): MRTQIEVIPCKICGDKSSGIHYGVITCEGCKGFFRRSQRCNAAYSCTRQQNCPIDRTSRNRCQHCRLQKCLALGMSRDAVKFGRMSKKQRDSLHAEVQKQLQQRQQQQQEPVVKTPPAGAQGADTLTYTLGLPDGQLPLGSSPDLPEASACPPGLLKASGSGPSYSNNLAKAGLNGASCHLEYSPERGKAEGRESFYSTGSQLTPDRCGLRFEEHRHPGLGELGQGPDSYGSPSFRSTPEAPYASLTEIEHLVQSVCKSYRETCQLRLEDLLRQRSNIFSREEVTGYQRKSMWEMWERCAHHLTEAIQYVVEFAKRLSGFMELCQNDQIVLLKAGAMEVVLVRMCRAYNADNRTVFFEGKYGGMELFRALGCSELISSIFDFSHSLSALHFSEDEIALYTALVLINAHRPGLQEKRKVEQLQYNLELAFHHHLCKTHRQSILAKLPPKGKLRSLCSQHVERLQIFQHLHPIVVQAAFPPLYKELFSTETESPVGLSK

Turning to `CCO[C@H]1CC[C@H](CN2Cc3cc(C(=O)NCc4ccc(S(=O)(=O)CC)cn4)ccc3[C@@H]2C(C)C)CC1` (single isomer, unassigned) [Compound 7a, 2-((trans-4-ethoxycyclohexyl)methyl)-N-((5-(ethylsulfonyl)pyridin-2-yl)methyl)-1-isopropylisoindoline-5-carboxamide], the Ki in test [1] is under 100 nM. The IC50 in test [2] was under 100 nM. In the case of `CCO[C@H]1CC[C@H](CN2Cc3cc(C(=O)NCc4ccc(S(=O)(=O)CC)cn4)ccc3[C@H]2C(C)C)CC1` (single isomer, unassigned) [Compound 7b, 2-((trans-4-ethoxycyclohexyl)methyl)-N-((5-(ethylsulfonyl)pyridin-2-yl)methyl)-1-isopropylisoindoline-5-carboxamide], the Ki in test [1] is over 1000 nM. `CCS(=O)(=O)c1ccc(CNC(=O)c2ccc3c(c2)CN(CC2CCC(O)(C(F)(F)F)CC2)C3C(C)C)cc1` (single isomer, unassigned) [Compound 12a, N-(4-(ethylsulfonyl)benzyl)-2-((4-hydroxy-4-(trifluoromethyl)cyclohexyl)methyl)-1-isopropylisoindoline-5-carboxamide]: the Ki in test [1] is under 100 nM. Besides, the IC50 in test [2] was under 100 nM. For `CCS(=O)(=O)c1ccc(CNC(=O)c2ccc3c(c2)CN(CC2CCC(O)(C(F)(F)F)CC2)C3C(C)C)cc1` (single isomer, unassigned) [Compound 12b, N-(4-(ethylsulfonyl)benzyl)-2-((4-hydroxy-4-(trifluoromethyl)cyclohexyl)methyl)-1-isopropylisoindoline-5-carboxamide], in test [1], the Ki is under 100 nM. Further, the IC50 in test [2] is over 1000 nM. As to `CCS(=O)(=O)c1ccc(CNC(=O)c2ccc3c(c2)CN(CC2CCC(O)(C(F)(F)F)CC2)C3C(C)C)cc1` (single isomer, unassigned) [Compound 12c, N-(4-(ethylsulfonyl)benzyl)-2-((4-hydroxy-4-(trifluoromethyl)cyclohexyl)methyl)-1-isopropylisoindoline-5-carboxamide], the Ki in test [1] is under 100 nM. For the same molecule, the IC50 in test [2] lay in the range of 100 to 1000 nM. For `CCS(=O)(=O)c1ccc(CNC(=O)c2ccc3c(c2)CN(CC2CCC(O)(C(F)(F)F)CC2)C3C(C)C)cc1` (single isomer, unassigned) [Compound 12d, N-(4-(ethylsulfonyl)benzyl)-2-((4-hydroxy-4-(trifluoromethyl)cyclohexyl)methyl)-1-isopropylisoindoline-5-carboxamide], the Ki in test [1] is under 100 nM. Moreover, the IC50 in test [2] was under 100 nM. As for `CCS(=O)(=O)N1CCC(CNC(=O)c2ccc3c(c2)CN(CC2CCC(OC)(C(F)(F)F)CC2)C3C(C)C)CC1` (single isomer, unassigned) [Compound 13a, N-((1-(ethylsulfonyl)piperidin-4-yl)methyl)-1-isopropyl-2-((4-methoxy-4-(trifluoromethyl)cyclohexyl)methyl)isoindoline-5-carboxamide], the inhibitory constant (Ki) in test [1] was under 100 nM. Further, in test [2], the IC50 is 100 to 1000 nM. Regarding `CCS(=O)(=O)N1CCC(CNC(=O)c2ccc3c(c2)CN(CC2CCC(OC)(C(F)(F)F)CC2)C3C(C)C)CC1` (single isomer, unassigned) [Compound 13b, N-((1-(ethylsulfonyl)piperidin-4-yl)methyl)-1-isopropyl-2-((4-methoxy-4-(trifluoromethyl)cyclohexyl)methyl)isoindoline-5-carboxamide], the inhibition constant (Ki) in test [1] is under 100 nM. Also, the IC50 in test [2] was under 100 nM. With `COC1(C(F)(F)F)CCC(CN2Cc3cc(C(=O)NCC4CCN(S(C)(=O)=O)CC4)ccc3[C@@H]2C(C)C)CC1` (single isomer, unassigned) [Compound 14b], the Ki in test [1] was under 100 nM. The IC50 in test [2] is over 1000 nM.

On to `CCS(=O)(=O)c1ccc(CNC(=O)c2ccc3c(c2)CN(CC2CCC(C(F)(F)F)OC2)[C@H]3C(C)C)nc1` (single isomer, unassigned) [Compound 16a], for which the Ki in test [1] is under 100 nM. Further, the IC50 in test [2] is under 100 nM. With `CCS(=O)(=O)c1ccc(CNC(=O)c2ccc3c(c2)CN(CC2CCC(C(F)(F)F)OC2)[C@H]3C(C)C)nc1` (single isomer, unassigned) [Compound 16b], the IC50 in test [2] was under 100 nM.

As to `CC[C@H]1c2ccc(C(=O)N[C@@H](COC(N)=O)c3ccc(S(=O)(=O)CC)cc3)cc2CN1C[C@H]1CC[C@H](C(F)(F)F)CC1` (single isomer, unassigned) [Compound 24a], the Ki in test [1] is under 100 nM. Moreover, the IC50 in test [2] is under 100 nM.

For the molecule `CC[C@H]1c2ccc(C(=O)N[C@@H](COC(N)=O)c3ccc(S(=O)(=O)CC)cc3)cc2CN1C[C@H]1CC[C@H](C(F)(F)F)CC1` (single isomer, unassigned) [Compound 24b], the Ki in test [1] is under 100 nM. For the same molecule, the IC50 in test [2] was over 1000 nM. The matching figures for `CCS(=O)(=O)c1ccc(CNC(=O)c2ccc3c(c2)C(=O)N(Cc2ccc(C(F)(F)F)cc2)C3C(C)C)cc1` (single isomer, unassigned) [Compound 26a, N-(4-(ethylsulfonyl)benzyl)-1-isopropyl-3-oxo-2-(4-(trifluoromethyl)benzyl)isoindoline-5-carboxamide]: under 100 nM and under 100 nM. In the case of `CCS(=O)(=O)c1ccc(CNC(=O)c2ccc3c(c2)C(=O)N(Cc2ccc(C(F)(F)F)cc2)C3C(C)C)cc1` (single isomer, unassigned) [Compound 26b, N-(4-(ethylsulfonyl)benzyl)-1-isopropyl-3-oxo-2-(4-(trifluoromethyl)benzyl)isoindoline-5-carboxamide], in test [1], the Ki was under 100 nM. In addition, the IC50 in test [2] lay in the range of 100 to 1000 nM.

For `CCS(=O)(=O)c1ccc(CNC(=O)c2ccc3c(c2)CN(C[C@H]2CO[C@H](C(F)(F)F)OC2)[C@H]3C(C)C)nc1` (single isomer, unassigned) [Compound 32a], in test [1], the Ki is under 100 nM. Besides, the IC50 in test [2] was under 100 nM. Take `CCS(=O)(=O)c1ccc(CNC(=O)c2ccc3c(c2)CN(C[C@H]2CO[C@H](C(F)(F)F)OC2)[C@H]3C(C)C)nc1` (single isomer, unassigned) [Compound 32b]: the Ki in test [1] is under 100 nM. Further, the IC50 in test [2] was over 1000 nM. Taken in the same sequence, the figures for `CCS(=O)(=O)c1ccc([C@H](CO)NC(=O)c2ccc3c(c2)CN(C[C@H]2CC[C@H](C(F)(F)F)CC2)[C@H]3C(C)C)cc1` [Compound 3a] were under 100 nM and under 100 nM. The matching figures for `CCS(=O)(=O)c1ccc([C@H](CO)NC(=O)c2ccc3c(c2)CN(C[C@H]2CC[C@H](C(F)(F)F)CC2)[C@@H]3C(C)C)cc1` [Compound 3b]: under 100 nM and 100 to 1000 nM.

In the case of `CCS(=O)(=O)c1ccc([C@@H](CO)NC(=O)c2ccc3c(c2)CN(C[C@H]2CC[C@H](C(F)(F)F)CC2)[C@H]3C(C)C)cc1` [Compound 3c], the Ki in test [1] was under 100 nM. In addition, in test [2], the IC50 is under 100 nM. `CCS(=O)(=O)c1ccc([C@@H](CO)NC(=O)c2ccc3c(c2)CN(C[C@H]2CC[C@H](C(F)(F)F)CC2)[C@@H]3C(C)C)cc1` [Compound 3d]: in test [1], the Ki is under 100 nM. The IC50 in test [2] is over 1000 nM. The matching figures for `CC(C)[C@H]1c2ccc(C(=O)NCC3CCN(S(C)(=O)=O)CC3)cc2CN1C[C@H]1CC[C@H](C(F)(F)F)CC1` [Compound 4a]: under 100 nM and under 100 nM.

For the molecule `CC(C)[C@@H]1c2ccc(C(=O)NCC3CCN(S(C)(=O)=O)CC3)cc2CN1C[C@H]1CC[C@H](C(F)(F)F)CC1` [Compound 4b], the Ki in test [1] is 100 to 1000 nM. `CCS(=O)(=O)c1ccc([C@H](CCO)NC(=O)c2ccc3c(c2)CN(C[C@H]2CC[C@H](C(F)(F)F)CC2)[C@H]3C(C)C)cc1` [Compound 6a]: in test [1], the Ki is under 100 nM. The IC50 in test [2] is under 100 nM. For `CCS(=O)(=O)c1ccc([C@H](CCO)NC(=O)c2ccc3c(c2)CN(C[C@H]2CC[C@H](C(F)(F)F)CC2)[C@@H]3C(C)C)cc1` [Compound 6b], the Ki in test [1] was under 100 nM. For the same molecule, the IC50 in test [2] lay in the range of 100 to 1000 nM.

In the case of `CCS(=O)(=O)N1CCC(CNC(=O)c2ccc3c(c2)CN(CC2CCC(OC)(C(F)(F)F)CC2)C3C(C)C)CC1` (stereo not drawn) [Compound 13c and 13d, N-((1-(ethylsulfonyl)piperidin-4-yl)methyl)-1-isopropyl-2-((4-methoxy-4-(trifluoromethyl)cyclohexyl)methyl)isoindoline-5-carboxamide], the Ki in test [1] fell in the range of 100 to 1000 nM.

Consider `CC[C@H]1c2ccc(C(=O)NCc3ccc(S(=O)(=O)NC)cc3)cc2CN1C[C@H]1CC[C@H](C(F)(F)F)CC1` [Compound 22], for which, in test [1], the Ki was under 100 nM. For the same molecule, in test [2], the IC50 is under 100 nM. Consider `CCC1(C)c2ccc(C(=O)NCc3ccc(S(=O)(=O)CC)cc3)cc2C(=O)N1CC1CCC(C(F)(F)F)CC1` (stereo not drawn) [Compound 31, 1-ethyl-N-(4-(ethylsulfonyl)benzyl)-1-methyl-3-oxo-2-((4-(trifluoromethyl)cyclohexyl)methyl)isoindoline-5-carboxamide], for which the Ki in test [1] was over 1000 nM.

One may read the Ki as a measure of affinity in units of concentration, obtained from inhibition or displacement. Broadly, the IC50 is the concentration at which inhibition is half-maximal.

The values above are taken from patent publication US9845308B2, “Isoindoline inhibitors of ROR-gamma” (Vitae Pharmaceuticals, Inc., priority 2014, dated 2017).
